Test results taken from US20250276993A1, “PSEUDO-DISACCHARIDE COMPOUNDS” (UNIVERSITEIT LEIDEN, priority 2022, published 2025).

How the values were obtained:
HPSE [1] = molecular target: T1, HPSE (Homo sapiens, UniProt Q9Y251); assay: cABPP Assay 1, recombinant HPSE; assay type: biochemical
T1 sequence (Q9Y251 36-109 limits assumed): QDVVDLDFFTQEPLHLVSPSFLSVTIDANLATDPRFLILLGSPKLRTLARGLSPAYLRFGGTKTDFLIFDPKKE
T1 sequence (Q9Y251 158-543 limits assumed): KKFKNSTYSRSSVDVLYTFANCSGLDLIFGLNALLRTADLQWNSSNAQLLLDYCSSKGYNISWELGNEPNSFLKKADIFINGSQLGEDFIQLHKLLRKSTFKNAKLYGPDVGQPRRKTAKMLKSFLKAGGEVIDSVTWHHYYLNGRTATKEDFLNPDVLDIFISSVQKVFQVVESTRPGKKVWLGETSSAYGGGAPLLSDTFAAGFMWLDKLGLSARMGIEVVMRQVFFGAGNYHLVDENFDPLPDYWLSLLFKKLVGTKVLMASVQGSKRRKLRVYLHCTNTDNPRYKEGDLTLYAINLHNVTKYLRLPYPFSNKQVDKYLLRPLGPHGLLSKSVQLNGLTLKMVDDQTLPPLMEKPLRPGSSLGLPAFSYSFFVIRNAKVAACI

human platelet HPSE = molecular target: T2, human platelet HPSE (Homo sapiens, UniProt Q9Y251); assay: cABPP with fluorescence quantitation, platelet lysates, HPSE; assay type: biochemical; settings: read-out: IC50 platelet HPSE inhibition
T2 construct: endogenous in cells; host or cells: human platelet lysates
T2 sequence (Q9Y251 158-543 limits assumed): T1 sequence (Q9Y251 158-543 limits assumed)
T2 sequence (Q9Y251 36-109 limits assumed): T1 sequence (Q9Y251 36-109 limits assumed)
Procedure: ABP labelling reactions were carried out in Mcllvaine buffer (pH 5.5), 300 mM NaCl. For recombinant proteins 200 fmol of EcGH2, BpHep, AcGH79, HPSE or proHPSE was used (20 nM in 10 μl final reaction volume). For labeling cell lysates, 4-20 μg total protein was used. Labeling reactions were initiated by the addition of ABP compounds 7, 8 or 9 to a final concentration of 100 nM (unless otherwise specified), before incubation for 30 min at 37° C. with shaking. Following labeling, samples were denatured by boiling with Laemmli buffer for 5 min and resolved by SDS-PAGE. Gels were scanned using Typhoon-5 laser scanner platform (Cytiva), using the λEX 635 nm laser and 670BP30 emission filter. For competitive ABPP (cABPP) experiments, protein mixtures were preincubated with inhibitor (or buffer only control) for 1 h at 37° C. with shaking, before the addition of 7 to a final concentration of 100 nM, and subsequent incubation for 30 min at 37° C. with shaking. SDS-PAGE and analysis steps were carried out as above. For quantitative measurements, fluorescently labeled band intensities were calculated using Imagequant (Cytiva), and normalized to the corresponding band in the inhibitor free control lane. cABPP plots were prepared and analyzed using SigmaPlot 14.0 (Systat).
Further cABPP studies were undertaken using platelet lysates to provide a more physiologically realistic environment. […]

HPSE [2] = molecular target: T1, HPSE; assay: Fondaparinux cleavage assay; assay type: biochemical
HPSE [3] = molecular target: T1, HPSE; assay: HSPG digest assay, recombinant HPSE; assay type: biochemical
Procedure: ECM coated 35 mm culture dishes containing ^35S labelled HS were prepared as previously described (Vlodavsky et al., Curr. Protoc. Cell. Biol., Chapter 10, Unit 10, 14). Briefly, bovine corneal endothelial cells were plated at an initial density of 2×10^5 cells/ml, with 4% dextran T-40 (Sigma) included in the growth medium. Na2^35SO4 (25 μCi/ml) was added to the incubation medium on days 2 and 5 after seeding. On day 12, subendothelial ECM is exposed by dissolving the cells with PBS containing 0.5% Triton X-100 and 20 mM NH4OH, followed by four washes with PBS. For HS-degradation assays, ECM coated dishes were incubated with 200 ng recombinant HPSE in 1 mL reaction mixture (10 mM buffer Phosphate-Citrate pH 6.0, 50 mM NaCl, 1 mM DTT, 1 mM CaCl2) containing HPSE inhibitors or DMSO control. Plates were incubated at 37° C. for 5 h, then assay medium collected and applied to a 0.9×30 cm Sepharose 6B size exclusion column. The Sepharose 6B column was eluted with PBS, and ^35S radioactivity of 0.2 mL fractions quantitated using a liquid scintillation analyzer (Packard BioScience). Digest assays with U87 cell lysates were carried out in a similar fashion, except plates were incubated for 18 h with cell extracts prepared from 1×10^6 U87 glioma cells lysed by 3× freeze/thaw cycles.
The compounds of the invention were assessed against HPSE degradation of bona fide HSPGs in a physiologically relevant ECM-like environment. Cultured bovine corneal […] cells secrete a subendothelial basement membrane material rich in HSPGs, and their growth in the presence of ^35SO4^2− results in ^35S radiolabeled HSPGs (Vlodavsky et al., Curr Protoc Cell Biol, Chapter 10, Unit 10, 4, 2001). H^35S chains attached to these HSPGs are detectable after solubilization by HPSE, with enzyme inhibition leading to a corresponding reduction of signal.

U87 glioblastoma cells = assay: Matrigel invasion assay; assay type: cell-based, human; settings: 20 μM inhibitor, 4 h
Procedure: The Matrigel invasion assay was used to assess the effects of the compounds of the invention on cancer cell aggression. This is an in cellulo model of cell invasion through a HSPG rich basement membrane. The ability of cells to migrate through transwell inserts coated with Matrigel (an ECM secretion from Engelbreth-Holm-Swarm mouse sarcoma cells) correlates well with their in vivo invasive potential (Hall et al., Methods Mol Biol, 1070, 1-11 (2014)).
1×10^5 U87 cells in 200 μL DMEM media (without serum) were seeded onto the top chamber of a Matrigel-coated Boyden transwell filter, alongside 20 μM HPSE inhibitor (or PBS control). Cells in the upper chamber were separated by Matrigel from a lower chamber containing 600 μL DMEM, supplemented with 10% FBS. Plates were incubated at 37° C. for 4 h, before fixing cells in 4% (v/v) paraformaldehyde, and staining with 0.5% (w/v) crystal violet. Matrigel and non-migrating cells in the upper side of the Boyden filter were removed by swabbing, then invading cells on the bottom side of the transwell filter imaged for analysis. 10 randomly selected microscopic fields were recorded, and cell invasion calculated using ImageJ, by quantitating the percentage of the field stained by crystal violet. Graphs were plotted using RStudio.
The Matrigel invasion assay was used to assess the effects of the compounds of the invention on cancer cell aggression. […]

HPSE [4] = molecular target: T1, HPSE; assay: X-ray crystallography, ligand soaking of HPSE crystals; settings: crystal soaking
Source text: Xray diffraction data were collected at 100 K at beamlines i03 (HPSE-2, HPSE-3, HPSE-4, EcGUSB-1, BpHep-3), i04 (AcGH79-2, BpHep-2) and i04-1 (Apo-AcGH79, AcGH79-1, AcGH79-3) of the Diamond Light Source UK. Reflections were autoprocessed using the XIA2 pipeline. Complexes were solved by directly refining against their unliganded structures where isomorphous, or else solved by molecular replacement with PHASER (search model PDB accessions: 5E98 (HPSE), 3VNY (AcGH79), 3K46 (EcGUSB), 5BWI (BpHep)). […] Ligand coordinates were built using jLigand. Diagrams were generated using PyMOL.
HPSE—Well diffracting crystals of HPSE were obtained by the sitting-drop vapor-diffusion method at 20° C. using a well solution containing 0.1 M MES pH 5.5, 0.1 M MgCl2, 17% (w/v) PEG 3350, and a protein to well solution ratio of 200 nl:500 nl. Crystals typically appeared after 1 week. Inhibitor ligand complexes were obtained by transferring HPSE crystals to drops of well solution supplemented with 25% (v/v) ethylene glycol and 1-5 mM inhibitor. Crystals were incubated with ligand for ˜2-4 h, then directly harvested and flash-cooled in LN2 for data collection.
To better understand the molecular basis of interaction between our inhibitors and their targets, we turned to X-ray crystallography, using ligand soaking to derivatize enzymes in crystallo.

With CC(=O)N[C@H]1[C@@H](O[C@H]2[C@H](O)[C@@H](O)[C@@H]3O[C@@H]3[C@@H]2C(=O)O)O[C@H](COS(=O)(=O)O)[C@@H](O)[C@@H]1O [Compound 3, 4-O-(2-N-acetyl-2-deoxy-6-O-sulfo-D-glucopyranosyl)-glucurono-cyclophellitol] the “HPSE inhibition (abrogation of labelling by ABP 7)” value (HPSE [1]; 1 h preincubation at 37° C., pH 5.5, 100 nM ABP 7) was “inhibited HPSE at nanomolar concentrations”, the “potency against HPSE relative to other compounds” value (HPSE [1]; cABPP Assay 1) was “greater potency against HPSE than 2 and 4” and the IC50 (human platelet HPSE) was ~0.056 µM. The “fold more potent than reference inhibitors #98 (10) and OGT2115 (11)” value (HPSE [2]) was “approximately 2 fold”, the “inhibition of HPSE degradation of 35S-labelled HSPGs” value (HPSE [3]; 200 ng recombinant HPSE, pH 6.0, 5 h) was “robust, dose dependent inhibition” and the “concentration giving comparable levels of inhibition” value (HPSE [3]; HSPG digest, recombinant HPSE) was 1 µM. The Matrigel invasion (U87 glioblastoma cells) was “significantly reduced Matrigel invasion” and the “binding mode in HPSE active site cleft” value (HPSE [4]) was “covalent linkages between their pseudo-anomeric carbons and the enzyme nucleophile Glu343”.
